SMILES strings stand for the structures.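 Briefly, cells in 96-well plates were exposed to five compound concentrations for 48 h, and endpoints were estimated by linear interpolation. TGI marks complete inhibition of growth.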

Common to all, as to experiment: inhibition of tumour cell growth, NCI panel, 48 h
Assay [1] has as its system 786-0 renal.
Assay [2] concerns ACHN renal.
In assay [3] the test system is BT-549 breast.
Assay [4] concerns HCT-116 colon.
Assay [5] concerns HOP-62 NSCLC.
Assay [6] has as its system KM12 colon.
The test system of assay [7] is M14 melanoma.
The test system of assay [8] is MALME-3M melanoma.
In assay [9] the test system is MDA-N.
In assay [10] the test system is NCI-H23 lung.
In assay [11] the test system is OVCAR-5 ovarian.
Assay [12] relates to RXF 393 renal.
For assay [13], the system named is SF-295 CNS.
The subject of assay [14] is SK-MEL-5 melanoma.
Assay [15] deals with SK-OV-3 ovarian.
Assay [16] relates to SN12C renal.
The subject of assay [17] is SNB-19 CNS.
For assay [18], the system named is SNB-75 CNS.
In assay [19] the test system is UACC-62 melanoma.
The test system of assay [20] is UO-31 renal.

Consider `COc1cccc2c1C(=O)C1=C(C2=O)C(O)CC(C)(C)O1` (stereo not given), for which the TGI in assay [1] was more than 100 µM; in assay [2], more than 100 µM; in [3] it was more than 100 µM; in assay [4] it was 63 µM; in assay [5] it was more than 100 µM; in assay [6], 91.2 µM. The TGI in assay [7] is more than 100 µM; in assay [8], 33.7 µM; in assay [9], 36 µM; in assay [10], 74.5 µM; in assay [11], more than 100 µM; in assay [12] it was more than 100 µM. Further, the TGI was more than 100 µM in [13]; 28.3 µM in assay [14]; more than 100 µM in assay [15]; more than 100 µM in assay [16]; more than 100 µM in assay [17]; more than 100 µM in [18]. Also, the TGI was 60.9 µM in assay [19] and more than 100 µM in assay [20].

As for `C1=CC2C=CC(C=C1)P2c1ccccc1` (stereo not given), the TGI in [1], in assay [2], in assay [3], in assay [4], in assay [5] and in assay [6] was more than 100 µM throughout. The TGI in [7], in assay [8], in assay [9], in assay [10], in [11] and in assay [12] was more than 100 µM each time. For the same molecule, the TGI in [13], in assay [14], in assay [15], in assay [16], in assay [17] and in [18] was more than 100 µM each time. Besides, the TGI in assay [19] and in [20] was more than 100 µM in each case.

For `Cc1ccc(N=N/C(=N/NC(=O)c2cc(Cl)ccc2O)c2ccc(N(CCC#N)CCC#N)cc2C)cc1`, the TGI in assay [1] was more than 100 µM; in assay [2], 70.4 µM; in assay [3], 88.7 µM; in assay [4], 54.4 µM; in assay [5], more than 100 µM; in assay [6] it was more than 100 µM. For the same molecule, the TGI in assay [7] was more than 100 µM; in assay [8], 47.8 µM; in [9] it was more than 100 µM; in [10] it was 55.9 µM; in [11], more than 100 µM; in assay [12], more than 100 µM. The TGI was 83.3 µM in assay [13]; 36.4 µM in assay [14]; 74.2 µM in [15]; 85.6 µM in [16]; more than 100 µM in [17]; 86.8 µM in [18]. The TGI in [19] amounted to 59.7 µM; in assay [20] it was 64.9 µM.

Turning to `Cc1ccc(S(=O)(=O)NC(=O)NC(CC(N)=O)C(=O)O)cc1` (stereo not given), the TGI in assay [1], in assay [2], in [3], in assay [4], in [5] and in assay [6] was more than 100 µM in each case. The TGI in [7], in [8], in assay [9], in [10], in assay [11] and in assay [12] was more than 100 µM throughout. In addition, the TGI in assay [13], in [14], in assay [15], in [16], in [17] and in assay [18] was more than 100 µM each time. Moreover, the TGI in assay [19] and in assay [20] was more than 100 µM in each case.

`CC1OC(OC2C(O[C@H]3CC[C@@H]4C(=CC[C@@H]5[C@@]4(C)C(=O)C[C@]4(C)[C@@H]([C@H](C)CC[C@@H](O)C(C)(C)O)CC[C@@]54C)C3(C)C)OC(CO)C(O)C2O)C(O)C(O)C1O` (stereo not given in full): the TGI in [1], in [2], in assay [3], in [4], in assay [5] and in assay [6] was more than 100 µM throughout. Besides, the TGI in [7], in [8], in assay [9], in assay [10], in assay [11] and in [12] was more than 100 µM in each case. Besides, the TGI in [13], in assay [14], in assay [15], in [16], in assay [17] and in assay [18] was more than 100 µM each time. For the same molecule, the TGI in [19] and in assay [20] was more than 100 µM each time.

Consider `CC(=O)Oc1c(C)c2c(c3ncccc13)OC(C)C2` (stereo not given), for which the TGI came out at 26.7 µM in assay [1]; 24.5 µM in [2]; 35.6 µM in assay [3]; 32.3 µM in assay [4]; 30.9 µM in assay [5]; 28.7 µM in assay [6]. In addition, the TGI was 28.5 µM in assay [7]; 30.2 µM in assay [8]; 32.3 µM in [9]; 32.9 µM in assay [10]; 31 µM in [11]; 30.9 µM in assay [12]. The TGI in [13] is 28.5 µM; in assay [14], 27.5 µM; in [15], 54.2 µM; in assay [16], 30.1 µM; in assay [17], more than 100 µM; in assay [18], 28 µM. The values for the TGI in assay [19] and in [20] were 24.6 µM and 28.4 µM, respectively.

Values taken from PubChem BioAssay (NCI).
